# Experimental data taken from US8173595B2, “Methods and compositions for the inhibition of thrombus formation” (The Board of Trustees of the University of Illinois, priority 2004, dated 2012).
# Where no end group is shown, it is not given here. [ ]: non-standard residue; d: D form. The star is where a group is joined. Myristoyl = CCCCCCCCCCCCCC(=O)*; pS = N[C@@H](COP(=O)(O)O)C(=O)O
# Tests used:
# [1] = molecular target: T1, 14-3-3 binding to GPIb-IX (Homo sapiens, UniProt P63104); experiment: Binding of GPIb-IX from platelet lysates to 14-3-3-conjugated beads (Western blot); conditions: recombinant 14-3-3-MBP beads, FIG. 1B
# T1 construct: GPIb-IX: platelet lysate
# T1 sequence (P63104 1-245): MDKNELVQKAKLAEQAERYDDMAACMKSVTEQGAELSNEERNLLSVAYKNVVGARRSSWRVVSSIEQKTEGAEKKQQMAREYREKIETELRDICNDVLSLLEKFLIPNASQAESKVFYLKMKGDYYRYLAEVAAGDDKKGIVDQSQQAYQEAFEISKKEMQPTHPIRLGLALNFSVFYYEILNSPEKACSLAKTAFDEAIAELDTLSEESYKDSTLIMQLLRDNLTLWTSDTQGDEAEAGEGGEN
# Experimental: 14-3-3 binding to GPIb-IX. Binding of GPIb-IX to 14-3-3-conjugated beads were performed as previously described (Du et al., J. Biol. Chem., 271:7362-7367 (1996)). Briefly, 14-3-3-conjugated Sepharose 4B beads and maltose-binding protein (MBP)-conjugated control beads were preincubated with various concentrations of synthetic peptides at 4° C. for 1 h, and then with platelet lysates for an additional 1 h. The beads were washed three times. Bound GPIb-IX was detected by Western blot with a monoclonal antibody against GPIbα, WM23.
# [2] = test system: platelets (platelet-rich plasma from healthy donors); experiment: Ristocetin-induced (vWF-dependent) platelet aggregation in platelet-rich plasma; type: cell-based, human
# Experimental: (§1) Platelet preparation and aggregation. Blood was drawn from healthy donors, and was anti-coagulated with 1/10 volume of 3.8% trisodium citrate. Platelet-rich plasma (PRP) was obtained by centrifugation at 300×g for 20 min at 22° C. Platelet aggregation was measured using a turbidometric platelet aggregometer at 37° C. with a stirring speed at 1000 rpm. To examine the effects of peptides, various concentrations of each peptide was preincubated with platelets at 22° C. for 5 min. In some experiments, intergrin inhibitor RGDS (1 mM) was also added to exclude the roles of β3 integrins.
# [3] = test system: GPIb-IX-dependent platelet agglutination; experiment: Ristocetin-induced GPIb-IX-specific platelet agglutination in the presence of RGDS; type: cell-based, human; conditions: PRP, in the presence of 1 mM RGDS, ristocetin 1.25 mg/ml, FIG. 2A, 2B
# Experimental: as §1
# platelets = experiment: Botrocetin-induced platelet agglutination; type: cell-based
# [4] = test system: platelets (platelet-rich plasma); experiment: Platelet aggregation induced by ADP, collagen or thromboxane A2 analog U46619; type: cell-based, human; conditions: collagen, thromboxane A2 analog U46619, FIGS. 2C, 2D, 2E
# Experimental: as §1
# [5] = test system: vWF binding to GPIb-IX on washed human platelets; experiment: Flow cytometry analysis of ristocetin-induced vWF binding to platelets; type: cell-based; conditions: 10 mM EDTA or RGDS, ristocetin 1 mg/ml, FIG. 3
# Experimental: Flow cytometry analysis of VWF binding to platelets. Flow cytometry analysis of vWF binding to platelets has been described previously 8,9. Washed platelets (1.0×10^7/ml) were prepared as described previously (Englund et al., J. Biol. Chem., 276:16952-16959 (2001); Bodnar et al., J. Biol. Chem. 277:47080-47087 (2002)), and resuspended in phosphate-buffered saline (PBS) solution (0.01 M NaH2PO4, 0.15 M NaCl, pH 7.4) containing 10 mM EDTA and 1% BSA. Platelets were preincubated with various concentrations of synthetic peptides at 22° C. for 10 min before incubating with purified vWF (35 μg/ml) and ristocetin (1.0 mg/ml) at 22° C. for 30 min. Platelets were washed once, further incubated in the same buffer containing 10 μg/ml FITC-labeled SZ-29 in the dark at 22° C. for 30 min and then analyzed by flow cytometry. As negative controls, platelets were incubated in the presence of ristocetin alone then incubated with FITC-labeled SZ29.
# platelet adhesion to vWF = experiment: Platelet adhesion under flow in vWF-coated glass capillaries; type: cell-based; conditions: washed platelets, in the presence of RGDS, FIG. 4A
# Experimental: Platelet adhesion under flow. Washed platelets (3×10^8/ml) were preincubated with various concentrations of synthetic peptides at 22° C. for 10 min, the platelets were perfused into the vWF-coated glass capillaries using a PhD syringe pump (Harvard Apparatus Inc.) at various shear rates for 8 min. Transient adhesion of platelets on the vWF-coated surface was recorded on video cassette recorder. Adherent platelets were counted in 10 randomly selected fields of 0.25 mm^2 within a 10 second time period.
# Tail-bleeding time = type: in vivo, C57 black mice; conditions: infused into jugular vein, 5 min circulation, compared with MαC or MαCsc, p<0.0001, FIG. 4B
# Experimental: Tail-bleeding time. Bleeding times were performed with 6-8-wk-old adult C57 black mice anesthetized with an intraperitoneal injection of avertin. The internal jugular vein was surgically exposed, and a total volume of 50 μl of a peptide (5 mM) was infused using a 27 G needle. Experiments were performed in a double-blinded fashion. After 5 min, tails were amputated 5 mm from the tail tip, and immersed in a tube containing 0.15M NaCl maintained at 37° C. Bleeding was visually followed and timed. Maximum bleeding time allowed was 10 min after which the tail was cauterized. Statistical differences between the groups were examined using Mann-Whitney test and InStat software.
compound,measurement,setting,value
C13H27CONH-SIRYSGHpSL (Myristoyl-SIRYSGH[pS]L) [MPαC],binding of GPIb-IX to 14-3-3 beads,[1],abolished
same,vWF-dependent platelet aggregation induced by ristocetin,"[2]; PRP preincubated with increasing concentrations of peptide, FIG. 1C",dose-dependently inhibited
same,ristocetin-induced platelet agglutination,[3],completely inhibited
same,botrocetin-induced platelet agglutination,platelets,inhibited
same,platelet aggregation induced by platelet agonists,[4],no inhibitory effect
same,ristocetin-induced vWF binding to platelets,[5],inhibited
same,adhesion of platelets on vWF surface under flow,platelet adhesion to vWF,almost no adhesion
same,median tail bleeding time,Tail-bleeding time,significantly prolonged
"C13H27CONH-SIRYSGHDL (Myristoyl-SIRYSGHDL) [MSDαC, myristoylated peptide replacing phosphorylated serine 609 with aspartic acid to simulate phosphoserine]",ristocetin-induced platelet aggregation,"[2]; PRP preincubated at room temperature for 5 min, FIG. 5",completely inhibited
C13H27CONH-SIRYSGHSL (Myristoyl-SIRYSGHSL) [MαC],binding of GPIb-IX to 14-3-3 beads,[1],not
same,ristocetin-induced platelet aggregation,"[2]; PRP, 100 μM, FIG. 1D, 1E",no significant effect
"C13H27CONH-LSISYGSHR (Myristoyl-LSISYGSHR) [MαCsc, myristoylated scrambled control peptide]",binding of GPIb-IX to 14-3-3 beads,[1],not
same,ristocetin-induced platelet aggregation,"[2]; PRP, 100 μM, FIG. 1D, 1E",no significant effect
SIRYSGHpSL [PαC],ristocetin-induced platelet aggregation,"[2]; PRP, 100 μM, FIG. 1D, 1E",no effect
"CCCCCCCCCCCCCC(=O)OC(=O)CCCCCCCCCCCCC [myristic anhydride (MA), myristic anhydride]",ristocetin-induced platelet aggregation,"[2]; PRP, 100 μM, FIG. 1D, 1E",no effect
